Assay results published in patent US20020115623A1, “Saponin derivatives useful for inhibiting sialyltransferase and biosynthesis of sialoglycoconjugate” (Shui-Tein Chen, priority 2000, published 2002).
One block for each compound: values may come before it.

How the values were obtained:
α2,6-sialyltransferase = molecular target: T1, α2,6-sialyltransferase (Gallus gallus, UniProt Q92183); assay: Assay of α2,6-sialyltransferase activity; type: biochemical; details: concentration of inhibitor in assay 20 μM
T1 construct: made in house
Protocol: (§1) α2,3-Sialyltransferases were prepared by the procedures as described by Tsuji et al, Eur J Biochem., 1993, 216(2), 377-85. The suspension of enzyme-bound beads in 250 mM sodium cacodylate buffer (pH 6.4), 25 mM MgCl2, 5 mM CaCl2 was mixed with a Vortex mixer. Then, 4 μl of the enzyme suspension (1×10^−6 Units) was pipetted using a Gilson P-20 pipetter immediately after mixing. The enzyme was then premixed with 4 μl of inhibitors (75 μM) or water (as control) at 25° C. for 5 min. Then, the substrates, 1 μl of CMP-[14C]NeuAc (40 nCi/μl) and 1 μl of Galα1,3GalNAc-Obzl (0.1 mM), were added to the pre-incubated enzyme-inhibitor mixture and incubated at 37° C. for 3 h. The final concentrations of sodium cacodylate, MgCl2, CaCl2, and Galα1,3GalNAc-OBzl in the reaction mixture were 100 mM, 10 mM, 2 mM, and […], respectively. The solution was placed in the ice to stop the reaction. The resulting reaction products were immediately analyzed by silica gel 60 HPTLC plate (Merck, Germany) with a solvent system of ethanol/pyridine/n-butanol/acetate/water (100:10:10:3:30). The radioactivity of the corresponding product and total radioactivity were detected and quantified with a BAS 1500 radio-image analyzer (Fuji Film, Japan).
α2,6-Sialyltransferases were prepared by the procedures as described by Tsuji et al, J Biol Chem., 1994, 269(2), 1402-9. The assay procedures for α2,6-Sialyltransferases were the same as those for α2,3-Sialyltransferases, except that 1 μl of Galα1,3GalNAc-Obzl (0.1 mM) was replaced by 1 μl of fetuin (1 μg/μl).

α2,3-sialyltransferase = molecular target: T2, α2,3-sialyltransferase (Mus musculus, UniProt P54751); assay: Assay of α2,3-sialyltransferase activity; type: biochemical; details: for Percentage of inhibition (%): concentration of inhibitor in assay 30 μM
T2 construct: made in house
T2 sequence (P54751 1-337): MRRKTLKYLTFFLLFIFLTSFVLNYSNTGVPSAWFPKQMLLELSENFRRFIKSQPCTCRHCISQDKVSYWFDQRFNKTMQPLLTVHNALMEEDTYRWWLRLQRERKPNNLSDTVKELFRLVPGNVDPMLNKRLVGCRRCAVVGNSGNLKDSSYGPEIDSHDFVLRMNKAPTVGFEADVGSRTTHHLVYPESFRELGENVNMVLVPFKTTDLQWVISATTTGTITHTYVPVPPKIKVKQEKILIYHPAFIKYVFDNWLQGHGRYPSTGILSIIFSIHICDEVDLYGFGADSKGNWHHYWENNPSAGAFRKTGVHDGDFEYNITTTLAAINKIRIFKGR
Protocol: as §1

[1] = tested on: cell surface α2,6-sialoglycoconjugates on HepG2; assay: Flow cytometry (FITC-SNA) of inhibitor-treated HepG2 cells; type: cell-based, human; details: for Cell surface α2,6-sialoglycoconjugates (%) on HepG2: three days, FITC-SNA stain, control 100
Protocol: (§2) Human breast cancer cell MCF7 and hepatoma cell HepG2 were incubated in 5% CO2 incubator at 37° C. with the MEM (Eagle) medium with Earle's Bss supplemented with 2 mM glutamine, 1.5 g/l sodium bicarbonate, 0.1 mM non-essential amino acids, 1.0 mM sodium pyruvate, 100 units/ml penicillin, 100 μg/ml streptomycin and 2.5 μg/ml amphotericin B and with 10% fetal bovine serum. The cells were transferred weekly to 0.025% trypsin in 0.53 mM EDTA in Ca^2+Mg^2+-free PBS.
(§3) The cells were incubated in the culture medium with 2.5% fetal bovine serum in the presence of a different concentration (5, 25, 50 and 100 μM, respectively) of the inhibitor in a 5% CO2 incubator at 37° C. for three days.
(§4) Fluorescein isothiocyanate labeled Maackia amurensis agglutinin (MAA) and Sambucus nigra agglutinin (SNA), which recognize the oligosaccharide species NeuAcα2,3-Gal-R and NeuAcα2,6-R, respectively, were purchased from Vector Labs Inc. (Burlingame, Calif.). Cells (control and inhibitor-treated). The cells scraped from dishes with a rubber policeman were washed with PBS and stained with fluorescein isothiocyanate labeled MAA and SNA, respectively, in binding buffer (10 mM HEPES, 0.15 M NaCl, pH 7.5) at 4° C. for 1 h. After centrifugation, cells were washed three times with PBS and fixed with 1% paraformaldehyde. The fluorescence intensity was measured with a FACScan flow cytometry (Becton Dickinson, Mountain View, Calif.).

fucosyltransferase = assay: Fucosyltransferase assay; type: biochemical; details: FIG. 1
Protocol: The fucosyltransferase (1 mU/10 μl, Calbiochem) in 100 mM Tris-HCl buffer (pH 7.5) and 40 mM MnCl2 was mixed with 4 μl inhibitor or water, 4 μl N-acetylglucosamine (1 mM) and 2 μl GDP-[^14C]fucose (20 nCi). The resulting solution was incubated at 37° C. for one hour. The reaction products were detected through the same procedures as those for sialyltransferase assay.

β-galactosidase = assay: β-Galactosidase assay; type: biochemical; set-up: Relative Activity (%): dose or concentration left out as unconfirmed
Protocol: […] The resulting solution was incubated at 37° C. for 30 min. The resulting products were detected through the same procedures as those for sialidase assay.

[2] = tested on: human breast cancer MCF7 cells; assay: Growth inhibition of MCF7 cells; type: cell-based; details: FIG. 2
Protocol: as §2, with “PBS. The cells were incubated in the culture medium with 2.5% fetal bovine serum in the presence of a different concentration (5, 25, 50 and 100 μM, respectively) of the inhibitor in a 5% CO2 incubator at 37° C. for three days.” for “PBS.”

sialidase = assay: Sialidase assay; type: biochemical; set-up: Relative Activity (%): dose or concentration left out as unconfirmed
Protocol: The sialidase (10 mU/90 μl, sigma) in 500 mM sodium phosphate buffer (pH 4.5) was mixed with 10 μl inhibitor (5 mM) or water, 100 μl 4-methylumbelliferyl-[…]-acetylneuraminic acid (0.2 mM, sigma). The resulting solution was incubated at 37° C. for 30 min. The solution was added 1 ml quenching buffer (0.133 M glycine-NaOH, pH 10.7, 60 mM NaCl and 41.5 mM Na2CO3) to stop the reaction. The fluorescence intensity of the resulting solution was measured by fluorescence spectrophotometer at 360 nm excitation and at 440 nm emission.

[3] = tested on: human hepatoma HepG2 cells; assay: Growth inhibition of HepG2 cells; type: cell-based; details: FIG. 3
Protocol: as §2, with “PBS. The cells were incubated in the culture medium with 2.5% fetal bovine serum in the presence of a different concentration (5, 25, 50 and 100 μM, respectively) of the inhibitor in a 5% CO2 incubator at 37° C. for three days.” for “PBS.”

α-mannosidase = assay: α-Mannosidase assay; type: biochemical; set-up: Relative Activity (%): dose or concentration left out as unconfirmed
Protocol: The α-mannosidase (10 mU/90 μl, Sigma) in 500 mM sodium phosphate buffer (pH 4.5) was mixed with 10 μl inhibitor (5 mM) or water, 100 μl 4-methylumbelliferyl-[…]-mannopyranoside (0.2 mM). The resulting solution was incubated at 37° C. for 30 min. The resulting products were detected through the same procedures as those for sialidase assay.

[4] = tested on: cell surface α2,3-sialoglycoconjugates on MCF7; assay: Flow cytometry (FITC-MAA) of inhibitor-treated MCF7 cells; type: cell-based, human; details: for Cell surface α2,3-sialoglycoconjugates (%) on MCF7: three days, FITC-MAA stain, control 100
Protocol: as §2, §3, §4

T1 sequence (Q92183 whole entry): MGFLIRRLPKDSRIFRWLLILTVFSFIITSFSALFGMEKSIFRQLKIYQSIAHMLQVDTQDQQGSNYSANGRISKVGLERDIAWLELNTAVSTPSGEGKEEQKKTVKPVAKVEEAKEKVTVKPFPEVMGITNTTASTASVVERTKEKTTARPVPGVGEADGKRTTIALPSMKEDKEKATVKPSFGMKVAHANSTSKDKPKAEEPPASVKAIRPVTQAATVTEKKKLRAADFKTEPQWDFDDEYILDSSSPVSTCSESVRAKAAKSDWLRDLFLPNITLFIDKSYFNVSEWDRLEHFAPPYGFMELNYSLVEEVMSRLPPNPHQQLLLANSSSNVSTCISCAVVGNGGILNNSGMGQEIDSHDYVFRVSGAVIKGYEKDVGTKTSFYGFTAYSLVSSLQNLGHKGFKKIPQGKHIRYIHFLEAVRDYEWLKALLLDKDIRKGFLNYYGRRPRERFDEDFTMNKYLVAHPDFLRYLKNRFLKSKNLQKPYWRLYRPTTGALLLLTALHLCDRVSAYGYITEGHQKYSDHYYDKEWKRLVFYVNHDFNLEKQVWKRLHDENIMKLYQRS

Compound: CC1(C)C[C@@H](O)[C@]2(C)CC[C@]3(C)C(=CC[C@@H]4[C@@]5(C)CC[C@H](O[C@@H]6O[C@H](C(=O)O)[C@@H](O)[C@H](O)[C@H]6O[C@@H]6O[C@H](CO)[C@H](O)[C@H](O)[C@H]6O)[C@](C)(CO)[C@@H]5CC[C@]43C)[C@@H]2C1 [soyasaponin III]
Percentage of inhibition (%) (α2,6-sialyltransferase): 23.1% | Percentage of inhibition (%) (α2,3-sialyltransferase): 61.5%

Compound: soyasaponin I-Me
Percentage of inhibition (%) (α2,6-sialyltransferase): 32.2% | Percentage of inhibition (%) (α2,3-sialyltransferase): 63.8%

Compound: CC1OC(OC2C(OC3C(OC4CCC5(C)C(CCC6(C)C5CC=C5C7CC(C)(C)CC(O)C7(C)CCC56C)C4(C)C)OC(C(=O)O)C(O)C3O)OC(CO)C(O)C2O)C(O)C(O)C1O (centres unmarked) [kaikasaponin III]
Percentage of inhibition (%) (α2,6-sialyltransferase): 83.2% | Percentage of inhibition (%) (α2,3-sialyltransferase): 95.5%

Compound: C[C@@H]1O[C@@H](O[C@H]2[C@H](O[C@H]3[C@H](O[C@H]4CC[C@@]5(C)[C@@H](CC[C@]6(C)[C@@H]5CC=C5[C@@H]7CC(C)(C)C[C@@H](O)[C@]7(C)CC[C@]56C)[C@@]4(C)CO)O[C@H](C(=O)O)[C@@H](O)[C@@H]3O)O[C@H](CO)[C@H](O)[C@@H]2O)[C@H](O)[C@H](O)[C@H]1O [soyasaponin I]
Cell surface α2,6-sialoglycoconjugates (%) on HepG2 ([1]; 5 μM): 96.5% | Cell surface α2,6-sialoglycoconjugates (%) on HepG2 ([1]; 25 μM): 85.1% | Cell surface α2,6-sialoglycoconjugates (%) on HepG2 ([1]; 50 μM): 76.4% | decrease of cell surface α2,6-sialoglyconjugates of HepG2 cells ([1]; 100 μM): about 60% | Cell surface α2,6-sialoglycoconjugates (%) on HepG2 ([1]; 100 μM): 41.4% | inhibition of fucosyltransferase (in words) (fucosyltransferase): not for fucosyltransferase | inhibition of galactosidase (in words) (β-galactosidase; Table 3): did not inhibit | Relative Activity (%) (β-galactosidase; soyasaponin I, control 100): 112.0% | growth of human breast cancer MCF7 cells (in words) [2]: inhibited the growth | inhibition of sialidase (in words) (sialidase; Table 3): did not inhibit | Relative Activity (%) (sialidase; soyasaponin I, control 100): 142.0% | growth of human hepatoma HepG2 cells (in words) [3]: inhibited the growth | Percentage of inhibition (%) (α2,6-sialyltransferase): 76.9% | inhibition of mannosidase (in words) (α-mannosidase; Table 3): did not inhibit | Relative Activity (%) (α-mannosidase; soyasaponin I, control 100): 99.4% | Cell surface α2,3-sialoglycoconjugates (%) on MCF7 ([4]; 5 μM): 99.5% | Cell surface α2,3-sialoglycoconjugates (%) on MCF7 ([4]; 25 μM): 68.0% | Cell surface α2,3-sialoglycoconjugates (%) on MCF7 ([4]; 50 μM): 56.8% | decrease of the α2,3-sialoglyconjugates of MCF7 cells ([4]; 100 μM): about 80% | Cell surface α2,3-sialoglycoconjugates (%) on MCF7 ([4]; 100 μM): 19.8% | inhibition of sialyltransferases (in words) (α2,3-sialyltransferase; FIG. 1, sialyltransferases, type not specified): specifically inhibited | Percentage of inhibition (%) (α2,3-sialyltransferase): 89.9%

Other lines, results leading:

Percentage of inhibition (%) (α2,6-sialyltransferase): 32.9% | Percentage of inhibition (%) (α2,3-sialyltransferase): 79.6%
Compound: CC1(C)CC(O)C2(C)CCC3(C)C(=CCC4C5(C)CCC(OC6OC(C(=O)O)C(O)C(O)C6OC6OC(CO)C(O)C(O)C6OC6OC(CO)C(O)C(O)C6O)C(C)(CO)C5CCC43C)C2C1 (centres unmarked) [soyasaponin V]

Percentage of inhibition (%) (α2,6-sialyltransferase): 64.4% | Percentage of inhibition (%) (α2,3-sialyltransferase): 93.3%
Compound: C[C@@H]1O[C@@H](O[C@H]2[C@H](O[C@H]3[C@H](O[C@H]4CC[C@@]5(C)[C@@H](CC[C@]6(C)[C@@H]5CC=C5[C@@H]7CC(C)(C)C[C@@H](O)[C@]7(C)CC[C@]56C)[C@@]4(C)CO)O[C@H](C(=O)O)[C@@H](O)[C@@H]3O)OC[C@H](O)[C@@H]2O)[C@H](O)[C@H](O)[C@H]1O [soyasaponin II]
